Assay results reported in patent publication US20150064794A1, “BIORELEVANT COMPOSITIONS” (PHARES PHARMACEUTICAL RESEARCH N.V., priority 2012, published 2015).
In brackets after ≈: the same amount, converted by molar mass.

Legend:
[1] = medium FaSSIF-Original; Söderlind; cited from earlier work
physchem = conditions: fassif
[2] = Solubility in canine FaSSIF (FaSSIF-canine)

| solubility (physchem) [µg/mL] | SMILES | solubility in prior art FaSSIF-Original [1] [µg/mL] | solubility [2] [µg/mL] |
| --- | --- | --- | --- |
| 75 (≈ 149 µM) | OCCN(CCO)c1nc(N2CCCCC2)c2nc(N(CCO)CCO)nc(N3CCCCC3)c2n1 [dipyridamole] | 19 (≈ 37.7 µM) |  |
|  | CC(=O)N1CCN(c2ccc(OCC3COC(Cn4ccnc4)(c4ccc(Cl)cc4Cl)O3)cc2)CC1 (stereo not shown) [ketoconazole] | 26 (≈ 48.9 µM) | 84.2 (≈ 158 µM) |
